In EP4289427A1, “DIHYDRO[1,8]NAPHTHYRIDIN-7-ONE AND PYRIDO[3,2-B][1,4]OXAZIN-3-ONE FOR USE IN TREATING CANCER, AND METASTASES IN PARTICULAR” (Anagenesis Biotechnologies, priority 2022, dated 2023):

What was measured:
[1] = test system: RD cells; experiment: Cytotoxicity assay (CellTiter-Glo 2.0) on RD cells; type: cell-based, Human; conditions: for IC50: Homo sapiens
In short: (§1)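 Viability read-out: ATP-based luminescence (CellTiter-Glo 2.0, 10 min, RT, dark) after compound exposure of freshly seeded cells for a cell-line-specific duration; relative IC50 derived from viability.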

[2] = test system: 4T1 cells; experiment: Cytotoxicity assay (CellTiter-Glo 2.0) on 4T1 cells; type: cell-based, Mouse; conditions: incubation 2 days; for IC50: Mus musculus, 48 h
In short: as §1

[3] = test system: MDA-MB-231 cells; experiment: Cytotoxicity assay (CellTiter-Glo 2.0) on MDA-MB-231 cells; type: cell-based, Human; conditions: incubation 3 days; for IC50: Homo sapiens, 72 h
In short: as §1

[4] = test system: EoL-1 cells; experiment: Cytotoxicity assay (CellTiter-Glo 2.0) on EoL-1 cells; type: cell-based, Human; conditions: incubation 1 day; for IC50: Homo sapiens, EOL1, 24 h
In short: as §1

[5] = test system: HUVECs; experiment: Tube formation assay (anti-angiogenic activity); type: cell-based, human; conditions: incubation 16 to 18 hours; for IC50: Homo sapiens, HUVEC
In short: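 HUVECs plated at 5000 cells/well on reduced growth factor basement membrane matrix, then exposed to compounds for 16 to 18 hours at 37°C. Cells stained with calcein-AM; tube networks imaged by confocal fluorescence microscopy and quantified.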

[6] = test system: RD cells; experiment: Differentiation of RD cells into myotubes (alpha-actinin staining); type: cell-based, Human; conditions: 7 days, Figure 3
Protocol: RD cells are cancer cells of muscle origin that arose from myogenic precursors that fail to complete muscle differentiation. One strategy to stop their progression is to differentiate them into myotubes.
To allow differentiation, RD cells were seeded at a density of 3500 cells/well in a 384-well plate coated with collagen type I, in DMEM (4,5g/L glucose) with L-Gln (cat.no. 41965-039 from Gibco) supplemented with 5% of knockout serum replacement (cat.no. 10828-028 from Gibco), 1% PenStrep (Gibco), 1% MEM NEAA (Gibco) and 0.1 mM 2-mercaptoethanol (Gibco) (hereafter "K5 medium"). Compounds to be tested were then added onto the cells and incubated for 7 days at 37°C. On day 7, cells were fixed with 4% paraformaldehyde solution and immunostained for α-actinin (cat.no. EA-53 from Sigma, at 1/30000).

[7] = test system: MDA-MB-231 cells; experiment: Scratch (wound healing) assay, cell migration; type: cell-based, Human; conditions: 24 hours, Figure 1
Protocol: Cell migration is involved in several pathological cancer processes such as tumor invasion, neoangiogenesis and metastasis. Scratch (or wound healing) assay is a method to study two-dimensional cell migration in vitro. It is based on the observation that cells growing in a monolayer migrate to reestablish cell contacts after a mechanical scratch wound.
The MDA-MB-231 cells were seeded into a 24-well plate and grown to confluent density. A scrape was made in each well using a pipette tip. Then, the cells monolayers were incubated for 2 hours with 5 µg/ml mitomycin C to stop cell proliferation. The cells were treated with the compounds to be tested for 24 hours. The cells were stained using CellMask Green actin tracking stain (cat.no. A57246 from Fisher Scientific) at time zero and at endpoint. Pictures were acquired using a fluorescence microscope (IXM from Molecular Device). The scratch area was measured with the ImageJ software. The recovery of the scratch area was calculated as a percentage of the scratch area at time zero.

[8] = test system: 4T1 cells; experiment: Epithelial-mesenchymal transition marker expression by qRT-PCR; type: cell-based, Mouse; design: key: ↗: increased expression; ↘: decreased expression; =: unchanged expression levels; conditions: 24 hours, expression normalized against RPL13
From the text: The epithelial-mesenchymal transition (hereafter "EMT") is a process by which epithelial cells lose their cell polarity and cell-cell adhesion while gaining migratory and invasive properties to become mesenchymal stem cells. EMT is commonly measured by quantifying both epithelial and mesenchymal marker's expression by quantitative reverse-transcription polymerase chain reaction (hereafter "qRT-PCR"). EMT inhibition is observed when epithelial markers are stable or increased while mesenchymal markers are decreased.
4T1 cells were treated with compounds to be tested or DMSO for 24 hours. 4T1 cells were then harvested directly in NucleoZol lysis buffer (cat. no. 740404.200 from Macherey-Nagel), according to the manufacturer's instructions. Total RNA was extracted using the NucleoSpin RNA set for NucleoZol (cat. no. 740406.50 from Macherey-Nagel). The quantity and purity of RNA was determined using a Quickdrop (Molecular Devices). RT-PCR was performed on 500 ng total RNA using iScript gDNA clear cDNA synthesis Kit (cat.no. 1725035 from Biorad). The qPCR was run on a QuantStudio 5 real time thermocycler (Applied Biosystems), with PowerUp SYBR Green Master Mix (cat.no. A25742 from Fisher Scientific) and the primers listed in Table 16.
Expression data of EMT markers have been normalized against expression data of the housekeeping gene RPL13.

[9] = test system: 4T1 cells; experiment: Colony forming (clonogenic) assay; type: cell-based, Mouse; conditions: 6 days of treatment, Figure 2
Protocol: Cancer stem cells are characterized by their ability to undergo virtually unlimited divisions. Colony forming assay (or clonogenic assay) is an in vitro assay designed to assess capability of single cells to grow into large colonies through clonal expansion.
4T1 cells were seeded at a density of 500 cells per well of six-well plates in 4T1 medium. Compounds to be tested were added 24 hours after seeding. After 6 days of treatment, the cells were fixed in 4% PFA and stained with 1% aqueous solution of crystal violet. Pictures of the entire wells were acquired, and the area of the positives colonies was evaluated by ImageJ software (Wayne Rasband; NIH).

CSc1cc(Oc2ccnc3c2CCC(=O)N3)ccc1NC(=O)Nc1cc(C(C)(C)C)nn1-c1cccc(F)c1 [Compound 013, 1-[5-tert-butyl-2-(3-fluorophenyl)pyrazol-3-yl]-3-[2-methylsulfanyl-4-[(7-oxo-6,8-dihydro-5H-1,8-naphthyridin-4-yl)oxy]phenyl]urea]
Cytotoxicity ([1]; 2 day-treatment): ++ (50% ≤ cytotoxicity < 85%) | Cytotoxicity ([1]; 4 day-treatment): ++ (50% ≤ cytotoxicity < 85%) | IC50 ([1]; 48 h, 2 day-treatment): 1 to 5 µM | IC50 ([1]; 96 h, 4 day-treatment): 5 to 10 µM | IC50 [2]: < 1000 nM | Cytotoxicity [2]: +++ (cytotoxicity ≥ 85%) | IC50 [3]: 1000 to 5000 nM | Cytotoxicity [3]: ++ (50% ≤ cytotoxicity < 85%) | IC50 [4]: 1 to 10 nM | Cytotoxicity [4]: +++ (cytotoxicity ≥ 85%) | IC50 [5]: < 100 nM | Angiogenesis inhibition [5]: +++ (angiogenesis inhibition ≥ 80%) | differentiation into myotubes [6]: dose-dependent differentiation into myotubes

CC(C)(C)c1cc(NC(=O)Nc2ccc(Oc3ccnc4c3CCC(=O)N4)cc2C(F)(F)F)n(-c2cncc(F)c2)n1 [Compound 016, 1-[5-tert-butyl-2-(5-fluoro-3-pyridyl)pyrazol-3-yl]-3-[4-[(7-oxo-6,8-dihydro-5H-1,8-naphthyridin-4-yl)oxy]-2-(trifluoromethyl)phenyl]urea]
Cytotoxicity ([1]; 2 day-treatment): ++ (50% ≤ cytotoxicity < 85%) | Cytotoxicity ([1]; 4 day-treatment): ++ (50% ≤ cytotoxicity < 85%) | IC50 ([1]; 48 h, 2 day-treatment): 1 to 5 µM | IC50 ([1]; 96 h, 4 day-treatment): 5 to 10 µM | IC50 [2]: < 1000 nM | Cytotoxicity [2]: +++ (cytotoxicity ≥ 85%) | IC50 [3]: 1000 to 5000 nM | Cytotoxicity [3]: ++ (50% ≤ cytotoxicity < 85%) | IC50 [4]: 10 to 100 nM | Cytotoxicity [4]: +++ (cytotoxicity ≥ 85%) | IC50 [5]: < 100 nM | Angiogenesis inhibition [5]: +++ (angiogenesis inhibition ≥ 80%) | migration in the scratch assay [7]: inhibition of their migration | Epithelial markers E-cadherin [8]: ↗ | Epithelial markers EpCAM [8]: ↗ | Mesenchymal markers Fibronectin [8]: ↘ | Mesenchymal markers Vimentin [8]: ↘ | colony growth [9]: inhibition of colony growth

CSc1cc(Oc2ccnc3c2OCC(=O)N3)ccc1NC(=O)Nc1cc(C(C)(C)C)nn1-c1cncc(F)c1 [Compound 018, 1-[5-tert-butyl-2-(5-fluoro-3-pyridyl)pyrazol-3-yl]-3-[2-methylsulfanyl-4-[(3-oxo-4H-pyrido[3,2-b][1,4]oxazin-8-yl)oxy]phenyl]urea]
Cytotoxicity ([1]; 2 day-treatment): + (20 % ≤ cytotoxicity < 50%) | Cytotoxicity ([1]; 4 day-treatment): ++ (50% ≤ cytotoxicity < 85%) | IC50 ([1]; 48 h, 2 day-treatment): 1 to 5 µM | IC50 ([1]; 96 h, 4 day-treatment): 1 to 5 µM | IC50 [2]: < 1000 nM | Cytotoxicity [2]: +++ (cytotoxicity ≥ 85%) | IC50 [3]: 1000 to 5000 nM | Cytotoxicity [3]: ++ (50% ≤ cytotoxicity < 85%) | IC50 [4]: 1 to 10 nM | Cytotoxicity [4]: +++ (cytotoxicity ≥ 85%) | IC50 [5]: < 100 nM | Angiogenesis inhibition [5]: +++ (angiogenesis inhibition ≥ 80%) | Epithelial markers E-cadherin [8]: ↗ | Epithelial markers EpCAM [8]: ↗ | Mesenchymal markers Fibronectin [8]: ↘ | Mesenchymal markers Vimentin [8]: ↘ | differentiation into myotubes [6]: dose-dependent differentiation into myotubes

CSc1cc(Oc2ccnc3c2OCC(=O)N3)ccc1NC(=O)Nc1cc(C(C)(C)C)on1 [Compound 021, 1-(5-tert-butylisoxazol-3-yl)-3-[2-methylsulfanyl-4-[(3-oxo-4H-pyrido[3,2-b][1,4]oxazin-8-yl)oxy]phenyl]urea]
Cytotoxicity ([1]; 2 day-treatment): ++ (50% ≤ cytotoxicity < 85%) | Cytotoxicity ([1]; 4 day-treatment): ++ (50% ≤ cytotoxicity < 85%) | IC50 ([1]; 48 h, 2 day-treatment): 1 to 5 µM | IC50 ([1]; 96 h, 4 day-treatment): 1 to 5 µM | IC50 [2]: 1000 to 5000 nM | Cytotoxicity [2]: ++ (50% ≤ cytotoxicity < 85%) | IC50 [3]: 1000 to 5000 nM | Cytotoxicity [3]: ++ (50% ≤ cytotoxicity < 85%) | IC50 [4]: < 1 nM | Cytotoxicity [4]: +++ (cytotoxicity ≥ 85%) | IC50 [5]: 100 to 500 nM | Angiogenesis inhibition [5]: +++ (angiogenesis inhibition ≥ 80%) | differentiation into myotubes [6]: dose-dependent differentiation into myotubes

CC(C)(C)c1cc(NC(=O)Nc2ccc(Oc3ccnc4c3CCC(=O)N4)cc2C(F)(F)F)on1 [Compound 023, 1-(3-tert-butylisoxazol-5-yl)-3-[4-[(7-oxo-6,8-dihydro-5H-1,8-naphthyridin-4-yl)oxy]-2-(trifluoromethyl)phenyl]urea]
Cytotoxicity ([1]; 2 day-treatment): ++ (50% ≤ cytotoxicity < 85%) | Cytotoxicity ([1]; 4 day-treatment): ++ (50% ≤ cytotoxicity < 85%) | IC50 ([1]; 48 h, 2 day-treatment): 1 to 5 µM | IC50 ([1]; 96 h, 4 day-treatment): 1 to 5 µM | IC50 [2]: 1000 to 5000 nM | Cytotoxicity [2]: +++ (cytotoxicity ≥ 85%) | IC50 [3]: 1000 to 5000 nM | Cytotoxicity [3]: ++ (50% ≤ cytotoxicity < 85%) | IC50 [4]: 1 to 10 nM | Cytotoxicity [4]: +++ (cytotoxicity ≥ 85%) | IC50 [5]: 100 to 500 nM | Angiogenesis inhibition [5]: +++ (angiogenesis inhibition ≥ 80%) | Epithelial markers E-cadherin [8]: ↗ | Epithelial markers EpCAM [8]: = | Mesenchymal markers Fibronectin [8]: ↘ | Mesenchymal markers Vimentin [8]: ↘

CSc1cc(Oc2ccnc3c2CCC(=O)N3)ccc1NC(=O)Nc1cc(C(C)(C)C)nn1-c1cncc(F)c1 [Compound 027, 1-[5-tert-butyl-2-(5-fluoro-3-pyridyl)pyrazol-3-yl]-3-[2-methylsulfanyl-4-[(7-oxo-6,8-dihydro-5H-1,8-naphthyridin-4-yl)oxy]phenyl]urea]
Cytotoxicity ([1]; 2 day-treatment): ++ (50% ≤ cytotoxicity < 85%) | Cytotoxicity ([1]; 4 day-treatment): ++ (50% ≤ cytotoxicity < 85%) | IC50 ([1]; 48 h, 2 day-treatment): 1 to 5 µM | IC50 ([1]; 96 h, 4 day-treatment): 1 to 5 µM | IC50 [2]: < 1000 nM | Cytotoxicity [2]: +++ (cytotoxicity ≥ 85%) | IC50 [3]: < 1000 nM | Cytotoxicity [3]: ++ (50% ≤ cytotoxicity < 85%) | IC50 [4]: 1 to 10 nM | Cytotoxicity [4]: +++ (cytotoxicity ≥ 85%) | IC50 [5]: < 100 nM | Angiogenesis inhibition [5]: +++ (angiogenesis inhibition ≥ 80%) | Epithelial markers E-cadherin [8]: ↗ | Epithelial markers EpCAM [8]: = | Mesenchymal markers Fibronectin [8]: ↘ | Mesenchymal markers Vimentin [8]: ↘

Cc1ccc(-n2nc(C(C)(C)C)cc2NC(=O)Nc2ccc(Oc3ccnc4c3OCC(=O)N4)cc2C(F)(F)F)cn1 [Compound 040, 1-[5-tert-butyl-2-(6-methyl-3-pyridyl)pyrazol-3-yl]-3-[4-[(3-oxo-4H-pyrido[3,2-b][1,4]oxazin-8-yl)oxy]-2-(trifluoromethyl)phenyl]urea]
Cytotoxicity ([1]; 2 day-treatment): ++ (50% ≤ cytotoxicity < 85%) | Cytotoxicity ([1]; 4 day-treatment): ++ (50% ≤ cytotoxicity < 85%) | IC50 ([1]; 48 h, 2 day-treatment): 5 to 10 µM | IC50 ([1]; 96 h, 4 day-treatment): 5 to 10 µM | IC50 [2]: < 1000 nM | Cytotoxicity [2]: +++ (cytotoxicity ≥ 85%) | IC50 [3]: 1000 to 5000 nM | Cytotoxicity [3]: ++ (50% ≤ cytotoxicity < 85%) | IC50 [4]: 10 to 100 nM | Cytotoxicity [4]: ++ (50% ≤ cytotoxicity < 85%) | IC50 [5]: 100 to 500 nM | Angiogenesis inhibition [5]: +++ (angiogenesis inhibition ≥ 80%) | migration in the scratch assay [7]: inhibition of their migration
